11 compounds from patent US7355047B2, “Substituted quinolone carboxylic acids, their derivatives, site of action, and uses thereof” (The Regents of the University of California, priority 2002, dated 2008) can be followed below.

In test [1] the test system is GABAA receptor complex (GRC). The test can be described thus: [35S]TBPS binding assay, rat cortex. Particulars: 2 nM [35S]TBPS, rat cortex; for IC50: read-out: IC50 (inhibition of [35S]TBPS binding); for % Inhibition of 2 nM TBPS in Rat Cortex at 10 μM: 10 μM compound, plain numbers = inhibition.
Test [2] deals with GABAA receptor complex (GRC). The test can be described thus: [35S]TBPS binding dissociation, mouse forebrain. Particulars: 2 nM [35S]TBPS, initiated by 10 μM compound 3, 10 μM mefenamic acid, FIG. 13.
For test [3], the system named is GABAA receptor complex (GRC). Kind of test: [35S]TBPS binding, rat cerebellum. Particulars: 2 nM [35S]TBPS, 30 μM furosemide, FIG. 14.

For the compound `C[C@H](O)[C@H]1CC[C@H]2[C@@H]3CC[C@H]4C[C@H](O)CC[C@]4(C)[C@H]3CC[C@]12C` [5α,20α-diol, 5α-pregnan-3α,20α-diol, reference compound], the “interaction with 5α,20α-diol inhibition of [35S]TBPS binding (neurosteroid site)” value in test [1] (10 μM compound 3 or 100 nM 3α,5α-P, FIG. 8) is “antagonize the effect of 3α,5α-P”.
As to `CN1C(=O)CN=C(c2ccc(Cl)cc2)c2cc(Cl)ccc21` [4′-chlorodiazepam, reference compound], the “effect on [35S]TBPS binding in absence or presence of Ro5-4864 (4′-chlorodiazepam)” value in test [1] (0.3, 1 and 30 μM Ro5-4864, FIG. 11) is given as “inability of 4′-chlorodiazepam to produce a dose-dependent rightward parallel shift”.
On to `CCn1cc(C(=O)O)c(=O)c2cc(F)c(N3CCNCC3)cc21` [norfloxacin, reference compound], for which, in test [1] (30 μM and 100 μM norfloxacin, FIG. 9), the “effect on [35S]TBPS binding in absence or presence of norfloxacin” value is “inability of norfloxacin to produce a dose-dependent rightward parallel shift”.
On to `CCOC(=O)c1cn(CC)c2cc(Cl)c(NC3CCCc4ccccc43)cc2c1=O` (stereo not drawn), for which, in test [1], the IC50 was 880 nM.
As for `CCn1cc(C(=O)O)c(=O)c2cc(NC3CCCc4ccccc43)c(Cl)cc21` (stereo not drawn) [drawing 15], in test [1], the IC50 came out at 2700 nM and the “% Inhibition of 2 nM TBPS in Rat Cortex at 10 μM” value (shortened to “% Inhibition of 2 nM TBPS”) was found to be 70%.
On to `Cc1cccc(Nc2ccccc2C(=O)O)c1C` [mefenamic acid, reference compound], for which the “dissociation of [35S]TBPS binding in absence or presence of mefenamic acid” value in test [2] was “accelerate the dissociation of [^35S]TBPS binding”.
With `CCCNC(=O)c1cn(CC)c2cc(Cl)c(NC3CCCc4ccccc43)cc2c1=O` (stereo not drawn), in test [1], the IC50 amounted to 1500 nM and the “% Inhibition of 2 nM TBPS” value is reported as 86%.
Taken in the same sequence, the figures for `CCn1cc(C(=O)O)c(=O)c2cc(NC(C)CCc3ccccc3)c(Cl)cc21` (stereo not drawn) were 2000 nM and 84%.
Consider `CCCC(C)C1(CC)C(=O)NC(=O)NC1=O` (stereo not drawn) [pentobarbital, reference compound], for which, in test [1] (initiated by 10 μM compound 3, 30 μM pentobarbital, FIG. 10), the “dissociation of [35S]TBPS binding in absence or presence of pentobarbital” value was “accelerate the dissociation of [^35S]TBPS binding”.
In the case of `NS(=O)(=O)c1cc(C(=O)O)c(NCc2ccco2)cc1Cl` [furosemide, reference compound], the “effect on [35S]TBPS binding in absence or presence of furosemide” value in test [3] is “inability of furosemide to produce a dose-dependent rightward parallel shift”.
As for `CCn1cc(C(=O)O)c(=O)c2cc(NCC(C)c3ccccc3)c(Cl)cc21` (stereo not drawn), in test [1], the half-maximal inhibitory concentration (IC50) was 4000 nM and the “% Inhibition of 2 nM TBPS” value came to 65%.
